From PMC3368886, “ATPase Cycle and DNA Unwinding Kinetics of RecG Helicase” (PLoS ONE, 2012)
“And” between values parts separate entries of the source, which are not always exact repeats. Equal entries are not always repeated.

Key:
RecG [1] = target: T1, RecG (Thermotoga maritima, UniProt Q9WY48); set-up: method as in PMID 16363810; conditions: much lower concentration of DNA; cited from earlier work
T1 construct: made in house
T1 sequence (Q9WY48 1-780): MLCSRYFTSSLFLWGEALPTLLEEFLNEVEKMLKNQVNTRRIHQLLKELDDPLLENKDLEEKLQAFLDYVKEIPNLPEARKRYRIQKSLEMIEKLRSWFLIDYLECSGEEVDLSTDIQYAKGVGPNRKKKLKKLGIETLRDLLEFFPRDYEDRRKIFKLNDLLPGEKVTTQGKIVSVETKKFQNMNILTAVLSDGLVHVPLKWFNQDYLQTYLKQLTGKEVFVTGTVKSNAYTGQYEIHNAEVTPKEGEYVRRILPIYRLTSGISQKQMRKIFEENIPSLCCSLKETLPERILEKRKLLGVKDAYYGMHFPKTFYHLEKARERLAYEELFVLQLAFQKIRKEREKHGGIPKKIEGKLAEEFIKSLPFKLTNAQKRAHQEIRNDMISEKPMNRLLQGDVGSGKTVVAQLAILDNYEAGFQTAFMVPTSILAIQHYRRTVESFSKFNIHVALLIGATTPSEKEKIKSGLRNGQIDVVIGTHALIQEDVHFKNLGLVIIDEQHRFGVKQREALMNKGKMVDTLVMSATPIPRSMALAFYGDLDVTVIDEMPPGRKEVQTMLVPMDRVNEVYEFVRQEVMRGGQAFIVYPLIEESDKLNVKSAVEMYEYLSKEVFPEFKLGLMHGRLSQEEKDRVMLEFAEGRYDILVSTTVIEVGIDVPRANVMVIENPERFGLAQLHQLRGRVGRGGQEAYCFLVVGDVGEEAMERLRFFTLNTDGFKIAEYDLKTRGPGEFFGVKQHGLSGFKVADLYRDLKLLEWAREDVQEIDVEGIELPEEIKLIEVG

RecG [2] = target: T1, RecG; assay: Steady-state ATPase rate measurements with phosphate biosensor MDCC-PBP; assay type: biochemical; conditions: no DNA, 20°C, 10 nM RecG
RecG⋅DNA(A40:B40) = target: T2, RecG⋅DNA(A40:B40) (Thermotoga maritima, UniProt Q9WY48); assay: Single turnover mant fluorescence, excess RecG⋅DNA over mantATP; assay type: biochemical
T2 construct: made in house
T2 sequence (Q9WY48 1-780): T1 sequence (Q9WY48 1-780)
Protocol: Extra information relating to changes in a single ATPase cycle can be obtained by mixing excess RecG⋅DNA(A40:B40) with mantATP (Figure 4A). […] The first change in fluorescence is presumably due to binding. After fitting to a double exponential, the observed rate constant for the initial change was linearly dependent on RecG concentration over the small range possible (0.5 µM –2.5 µM), limited by protein precipitation at higher concentrations. Due to the low concentrations, a hyperbolic dependence would not be observed. The observed rate constant of the second increase in fluorescence, 0.22 (±0.05) s^−1 (Figure 4A), was independent of RecG concentration. This second phase is likely to be due to the cleavage step, leading to the formation of bound mantADP.
Figure 4 Kinetic measurement of mantATP with excess of RecG and DNA: binding, hydrolysis and Pi release. The concentrations for all experiments were 0.5 µM mantATP, 2.5 µM RecG, 5 µM DNA (A40:B40) and 10 µM MDCC-PBP (for Pi measurement). All measurements were carried out at 20°C in the buffer described in Materials and Methods. (A) Time course of mant fluorescence (solid line), mantADP formation (circles) and Pi release (dashed line), measured as described in materials and methods. […] (B) Simulation of these time courses, based upon a global model for a single turnover of mantATP as described in the text. (C) The time course of mant fluorescence upon mixing 0.5 µM mantATP and 2.5 µM RecG with 5 µM DNA junction (A40:B40) after a first mixing of 5 µM RecG and 1 µM mantATP and aging for 1 s.
Stopped-flow experiments were performed in a HiTech SF61DX2 apparatus (TgK Scientific Ltd, Bradford-on-Avon, UK) with a mercury-xenon light source and HiTech KinetAsyst 3 or Kinetic Studio 1 software. For MDCC-PBP fluorescence, the excitation wavelength used was 436 nm and a 455 nm cut-off filter (Schott glass) used to collect emitted light. The signal was calibrated using known concentrations of Pi. The solutions contained the Pi mop, to minimize phosphate contamination and comprising 0.01 unit ml^−1 bacterial purine nucleoside phosphorylase and 200 µM 7-methylguanosine. For mant fluorescence, 366 nm was used to excite and a 400 nm cut-off filter (Schott glass) used to collect light. Measurements of Cy3 fluorescence used 547 nm excitation and a 570 nm cut-off filter. In experiments described, the quoted concentrations are those in the mixing chamber, except where stated. Data were fitted to theoretical curves using the HiTech software or Grafit.

[3] = target: T3, RecG with three-strand DNA junction (A40:B40:C19) (Thermotoga maritima, UniProt Q9WY48); assay: Single turnover ATPase measurements with three-strand junction; assay type: biochemical
T3 construct: made in house
T3 sequence (Q9WY48 1-780): T1 sequence (Q9WY48 1-780)
Protocol: Therefore, mantATP binding, quench-flow and phosphate measurements were carried out using with sub-stoichiometric mantATP, but with a non-complementary three-strand DNA junction (A40:B40:C19) to form a lagging strand duplex (as defined in Figure 1A). With excess mantATP, the duplex arm of this junction was unwound by the helicase, leaving RecG bound to the two-strand junction with the third strand displaced. With sub-stoichiometric mantATP, there was only a single turnover, so only partial unwinding of this DNA substrate occurred. The kinetics (Figure S2) were similar to those with the two-strand junction with mantATP binding at 4.2 (±0.4) s^−1, hydrolysis at 0.39 (±0.1) s^−1 and fast Pi release.
Supplementary file pone.0038270.s002.tif: Figure S2 Kinetic measurements of mantATP with excess of RecG and a Three-strand DNA Junction. The concentrations for all experiments were 0.5 µM mantATP, 2.5 µM RecG, 5 µM DNA Junction (A40:B40:C19) and 10 µM MDCC-PBP (for Pi measurement). All measurements were carried out under the conditions of Figure 4. Time course of mant fluorescence (continuous line), mantADP formation (circles) and Pi release (dashed line). […] (TIF) Click here for additional data file.

[4] = three-strand junction A40:B40:C19, sub-stoichiometric mantATP

Compound	K m previously reported (RecG [1])	k cat previously reported (RecG [1])	K m (RecG [2])	k cat (RecG [2])	observed rate constant of the second increase in fluorescence (RecG⋅DNA(A40:B40); 0.5 µM mantATP, excess RecG⋅DNA, independent of RecG concentration)	k +2 (cleavage step) (RecG⋅DNA(A40:B40); 20°C)	initial small increase in fluorescence as part of overall change (RecG⋅DNA(A40:B40); excess RecG⋅DNA over mantATP)	fluorescence intensity increase of bound nucleotide relative to free nucleotide (RecG⋅DNA(A40:B40); excess RecG⋅DNA(A40:B40))	Pi release ([3]; three-strand junction A40:B40:C19, result in words)	hydrolysis rate [3, 4]	mantATP binding rate [3, 4]
Nc1ncnc2c1ncn2[C@@H]1O[C@H](COP(=O)(O)OP(=O)(O)OP(=O)(O)O)[C@@H](O)[C@H]1O [ATP]	42 µM	5.2 s⁻¹	7.5 (±3.1) µM	0.2 (±0.1) s^−1							
CNc1ccccc1C(=O)O[C@H]1[C@@H](O)[C@H](n2cnc3c(N)ncnc32)O[C@@H]1COP(=O)(O)OP(=O)(O)OP(=O)(O)O [mantATP, 2′(3′)-O-(N-methylanthraniloyl)ATP]					0.22 (±0.05) s^−1	0.2 s⁻¹ and 0.22 s⁻¹	~20%	1.5 fold	fast	0.39 (±0.1) s^−1	4.2 (±0.4) s^−1
